In the NIST ThermoML archive (doi:10.1021/je800110r):
Numbers after ± are expanded uncertainties.

Conditions: 313.14 K, Liquid, Vibrating tube method

CCCCCCCCCC [decane]
Conditions | mass density [kg/m3]
9156 kPa | 722.3 ± 2
9171 kPa | 722.4 ± 2
9194 kPa | 722.3 ± 2
9210 kPa | 722.4 ± 2
9227 kPa | 722.3 ± 2
9245 kPa | 722.2 ± 2
9261 kPa | 722.3 ± 2
9284 kPa | 722.4 ± 2
9300 kPa | 722.4 ± 2
9323 kPa | 722.5 ± 2
9338 kPa | 722.6 ± 2
9358 kPa | 722.5 ± 2
9374 kPa | 722.6 ± 2
9392 kPa | 722.5 ± 2
9410 kPa | 722.6 ± 2
9431 kPa | 722.4 ± 2
9447 kPa | 722.6 ± 2
9463 kPa | 722.7 ± 2
9479 kPa | 722.4 ± 2
9503 kPa | 722.6 ± 2
9522 kPa | 722.6 ± 2
9538 kPa | 722.5 ± 2
9554 kPa | 722.6 ± 2
9574 kPa | 722.7 ± 2
9587 kPa | 722.7 ± 2
9607 kPa | 722.6 ± 2
9627 kPa | 722.6 ± 2
9646 kPa | 722.6 ± 2
9674 kPa | 722.5 ± 2
9694 kPa | 722.8 ± 2
9717 kPa | 722.7 ± 2
9733 kPa | 722.8 ± 2
9747 kPa | 722.7 ± 2
9770 kPa | 722.9 ± 2
9785 kPa | 722.8 ± 2
9807 kPa | 722.8 ± 2
9828 kPa | 722.9 ± 2
9851 kPa | 722.9 ± 2
9869 kPa | 722.8 ± 2
9892 kPa | 722.9 ± 2
9913 kPa | 722.9 ± 2
9930 kPa | 723 ± 2
9945 kPa | 722.9 ± 2
9970 kPa | 722.9 ± 2
9985 kPa | 722.9 ± 2
10007 kPa | 722.8 ± 2
10022 kPa | 723 ± 2
10046 kPa | 723 ± 2
10062 kPa | 723 ± 2
10088 kPa | 723 ± 2
10107 kPa | 723 ± 2
10128 kPa | 723.1 ± 2
10147 kPa | 723.1 ± 2
10166 kPa | 723 ± 2
10182 kPa | 723.1 ± 2
10199 kPa | 723.1 ± 2
10221 kPa | 723.1 ± 2
10234 kPa | 723.2 ± 2
10262 kPa | 723.3 ± 2
10278 kPa | 723.1 ± 2
10295 kPa | 723.2 ± 2
10317 kPa | 723.1 ± 2
10340 kPa | 723.2 ± 2
10361 kPa | 723.2 ± 2
10381 kPa | 723.2 ± 2
10400 kPa | 723.3 ± 2
10421 kPa | 723.3 ± 2
10437 kPa | 723.4 ± 2
10454 kPa | 723.3 ± 2
10483 kPa | 723.4 ± 2
10497 kPa | 723.3 ± 2
10520 kPa | 723.3 ± 2
10540 kPa | 723.4 ± 2
10567 kPa | 723.5 ± 2
10593 kPa | 723.4 ± 2
10616 kPa | 723.5 ± 2
10634 kPa | 723.5 ± 2
10655 kPa | 723.6 ± 2
10673 kPa | 723.6 ± 2
10694 kPa | 723.6 ± 2
10718 kPa | 723.6 ± 2
10739 kPa | 723.6 ± 2
10757 kPa | 723.6 ± 2
10781 kPa | 723.5 ± 2
10805 kPa | 723.6 ± 2
10821 kPa | 723.7 ± 2
10843 kPa | 723.6 ± 2
10861 kPa | 723.7 ± 2
10876 kPa | 723.6 ± 2
10895 kPa | 723.7 ± 2
10916 kPa | 723.7 ± 2
10935 kPa | 723.7 ± 2
10960 kPa | 723.6 ± 2
10988 kPa | 723.7 ± 2
11007 kPa | 723.8 ± 2
11027 kPa | 723.8 ± 2
11049 kPa | 723.8 ± 2
11070 kPa | 723.9 ± 2
11096 kPa | 723.8 ± 2
11115 kPa | 723.9 ± 2
11141 kPa | 723.9 ± 2
11164 kPa | 723.9 ± 2
11184 kPa | 723.9 ± 2
11210 kPa | 723.9 ± 2
11236 kPa | 723.9 ± 2
11260 kPa | 724 ± 2
11286 kPa | 724 ± 2
11306 kPa | 724.1 ± 2
11326 kPa | 724 ± 2
11344 kPa | 724.1 ± 2
11361 kPa | 723.9 ± 2
11385 kPa | 724.2 ± 2
11406 kPa | 724 ± 2
11429 kPa | 724 ± 2
11459 kPa | 724 ± 2
11480 kPa | 724 ± 2
11497 kPa | 724.2 ± 2
11518 kPa | 724.2 ± 2
11549 kPa | 724.3 ± 2
11570 kPa | 724.3 ± 2
11592 kPa | 724.1 ± 2
11609 kPa | 724.3 ± 2
11631 kPa | 724.3 ± 2
11661 kPa | 724.2 ± 2
11689 kPa | 724.3 ± 2
11711 kPa | 724.5 ± 2
11743 kPa | 724.4 ± 2
11765 kPa | 724.3 ± 2
11794 kPa | 724.4 ± 2
11820 kPa | 724.4 ± 2
11852 kPa | 724.4 ± 2
11886 kPa | 724.5 ± 2
11915 kPa | 724.5 ± 2
11945 kPa | 724.4 ± 2
11976 kPa | 724.6 ± 2
12006 kPa | 724.5 ± 2
12029 kPa | 724.6 ± 2
12060 kPa | 724.5 ± 2
12090 kPa | 724.6 ± 2
12118 kPa | 724.7 ± 2
12149 kPa | 724.5 ± 2
12173 kPa | 724.7 ± 2
12197 kPa | 724.7 ± 2
12233 kPa | 724.6 ± 2
12257 kPa | 724.7 ± 2
12287 kPa | 724.9 ± 2
12324 kPa | 724.8 ± 2
12341 kPa | 724.8 ± 2
12365 kPa | 724.9 ± 2
12382 kPa | 724.9 ± 2
12406 kPa | 724.9 ± 2
12434 kPa | 724.8 ± 2
12459 kPa | 724.9 ± 2
12483 kPa | 724.9 ± 2
12501 kPa | 724.9 ± 2
12523 kPa | 725 ± 2
12552 kPa | 725 ± 2
12574 kPa | 725 ± 2
12596 kPa | 724.9 ± 2
12624 kPa | 724.9 ± 2
12650 kPa | 725 ± 2
12672 kPa | 725.1 ± 2
12695 kPa | 725.2 ± 2
12721 kPa | 725.1 ± 2
12751 kPa | 725.1 ± 2
12774 kPa | 725.1 ± 2
12807 kPa | 725.3 ± 2
12834 kPa | 725.2 ± 2
12857 kPa | 725.2 ± 2
12882 kPa | 725.3 ± 2
12901 kPa | 725.2 ± 2
12923 kPa | 725.3 ± 2
12948 kPa | 725.2 ± 2
12973 kPa | 725.3 ± 2
12992 kPa | 725.3 ± 2
13015 kPa | 725.3 ± 2
13037 kPa | 725.5 ± 2
13059 kPa | 725.3 ± 2
13081 kPa | 725.3 ± 2
13107 kPa | 725.5 ± 2
13127 kPa | 725.5 ± 2
13151 kPa | 725.5 ± 2
13171 kPa | 725.4 ± 2
13187 kPa | 725.6 ± 2
13210 kPa | 725.5 ± 2
13230 kPa | 725.5 ± 2
13253 kPa | 725.4 ± 2
13276 kPa | 725.5 ± 2
13309 kPa | 725.5 ± 2
13333 kPa | 725.4 ± 2
13357 kPa | 725.5 ± 2
13384 kPa | 725.7 ± 2
13405 kPa | 725.6 ± 2
13434 kPa | 725.7 ± 2
13451 kPa | 725.8 ± 2
13475 kPa | 725.6 ± 2
13499 kPa | 725.8 ± 2
13520 kPa | 725.7 ± 2
13538 kPa | 725.7 ± 2
13562 kPa | 725.7 ± 2
13583 kPa | 725.7 ± 2
13607 kPa | 725.8 ± 2
13636 kPa | 725.8 ± 2
13654 kPa | 725.8 ± 2
13682 kPa | 726 ± 2
13714 kPa | 725.9 ± 2
13743 kPa | 725.9 ± 2
13768 kPa | 725.9 ± 2
13797 kPa | 725.9 ± 2
13830 kPa | 725.9 ± 2
13848 kPa | 726 ± 2
13878 kPa | 726 ± 2
13900 kPa | 726 ± 2
13932 kPa | 726 ± 2
13970 kPa | 726.1 ± 2
13987 kPa | 726.1 ± 2
14008 kPa | 726.2 ± 2
14029 kPa | 726.1 ± 2
14050 kPa | 726.2 ± 2
14071 kPa | 726.1 ± 2
14091 kPa | 726.2 ± 2
14119 kPa | 726.1 ± 2
14140 kPa | 726.1 ± 2
14168 kPa | 726.2 ± 2
14196 kPa | 726.3 ± 2
14224 kPa | 726.2 ± 2
14253 kPa | 726.3 ± 2
14277 kPa | 726.4 ± 2
14302 kPa | 726.3 ± 2
14328 kPa | 726.3 ± 2
14353 kPa | 726.4 ± 2
14371 kPa | 726.3 ± 2
14405 kPa | 726.4 ± 2
14426 kPa | 726.3 ± 2
14449 kPa | 726.4 ± 2
14485 kPa | 726.5 ± 2
14511 kPa | 726.5 ± 2
14540 kPa | 726.5 ± 2
14570 kPa | 726.5 ± 2
14600 kPa | 726.4 ± 2
14630 kPa | 726.5 ± 2
14663 kPa | 726.6 ± 2
14693 kPa | 726.7 ± 2
14719 kPa | 726.7 ± 2
14750 kPa | 726.6 ± 2
14780 kPa | 726.7 ± 2
14811 kPa | 726.8 ± 2
14830 kPa | 726.7 ± 2
14861 kPa | 726.7 ± 2
14892 kPa | 726.8 ± 2
14919 kPa | 726.8 ± 2
14944 kPa | 726.8 ± 2
14964 kPa | 726.8 ± 2
14984 kPa | 726.8 ± 2
15008 kPa | 726.8 ± 2
15036 kPa | 726.9 ± 2
15068 kPa | 726.9 ± 2
15100 kPa | 727 ± 2
15125 kPa | 727 ± 2
15154 kPa | 726.9 ± 2
15190 kPa | 727 ± 2
15219 kPa | 727 ± 2
15248 kPa | 727 ± 2
15273 kPa | 727.1 ± 2
15314 kPa | 727.1 ± 2
15343 kPa | 727.2 ± 2
15372 kPa | 727.2 ± 2
15397 kPa | 727 ± 2
15423 kPa | 727.1 ± 2
15441 kPa | 727.2 ± 2
15467 kPa | 727.3 ± 2
15485 kPa | 727.2 ± 2
15504 kPa | 727.2 ± 2
15526 kPa | 727.2 ± 2
